Data taken from patent publication US20200239587A1, “SENSITIZATION OF TUMORS TO THERAPIES THROUGH ENDOGLIN ANTAGONISM” (Cedars-Sinai Medical Center, priority 2016, published 2020).

Tests used:
Assay type in all cases: cell-based, human
[1] = test system: CW22Rv1 cells in 3D co-culture with mouse prostatic fibroblasts; assay: 3D co-culture epithelial proliferation, EpCam and Ki-67 FACS
Experimental: A modified version of the 3D organotypic co-culture system was performed in a collagen matrix similar to that previously reported (Stark et al., 1999, J Invest Dermatol 112, 681-691). Collagen matrix gels were prepared by mixing five volumes of rat tail collagen I with two volumes of matrigel (NCI), one volume of 10× DMEM medium (GE Healthcare Life Sciences), and one volume of FBS (Atlanta Biologicals), Rv1 and primary mouse prostatic fibroblasts were combined in a 1:3 ratio. Nylon squares were coated with collagen and placed on metal grids in a 6-well plate. Gel plugs (150 μl) were transferred onto the nylon squares and media was added to the level of the nylon mesh. After 72 hours, the cells were dissociated from the matrix with collagenase and dispersed for FACS analysis.
FACS experiments were performed with eBiosciences antibodies: anti-human Stro-1-FITC (340105), anti-human CD90-PE (12-0909-42), anti-human CD105-APC (17-1057-41), anti-mouse CD105-APC (17-1051-82), anti-human CD117-PE-Cy7 (15-1178-41), anti-human Ki67-PECy7 (25-5699-41), and anti-human EpCAM-PE (12-9326-41). All events were acquired on a BD LSRII flow cytometer in the Cedars-Sinai Medical Center FACS core installed with BD FACSDiva software. Files were analyzed using FlowJo software v10.2. EpCAM positive cells were used to identify the CW22Rv1 epithelia in three-dimensional (3D) co-cultures and further gated for CD105 or Ki67 positive cells.
CW22Rv1, C42B, and PC3 cells from ATCC were expanded as directed. Prostatectomy specimens from Cedars-Sinai Medical Center or the Greater Los Angeles Veterans Affairs were cultured to generate NAF and CAF cells using the same method, as C57BL/6 mouse wild-type prostatic fibroblasts were grown as previously reported (Franco et al., 2011, Cancer research 71, 1272-1281; Kiskowski et al., 2011, Cancer research 68, 4709-4718). TRC105 and M1043 were provided by TRACON Pharmaceuticals, Inc. (San Diego, Calif.). Enzalutamide (Xtandi) was purchased from Medivation (San Francisco, Calif.).

mtDNA in 22Rv1 cells = assay: Mitochondrial DNA quantitation; conditions: radiation in the presence of TRC105; p<0.0001
Experimental: FIGS. 24A-24D depict that PGC1α and mitochondrial biogenesis are regulated by BMP/CD105. 22Rv1 cells were incubated with IgG or TRC105 with or without 4 Gy irradiation. All measurements were made 72 hours post radiation. FIG. 24A) Western blot for whole cell lysate, nuclear and cytoplasmic fractions were independently analyzed for PGC1α expression. Loading controls included β-actin (whole cell), lamin B (nuclear marker), and Rho A (cytoplasm marker). FIG. 24B) Immunofluorescent localization of PGC1α was visualized with DAPI nuclear counterstain. FIG. 24C) mRNA expression of PGC1α target genes, NRF1, MTFA, and CPT1C was measured. mRNA expression was normalized to GAPDH and untreated IgG 0 Gy. FIG. 24D) Mitochondrial DNA (mtDNA) was measured from total DNA extracts and normalized to nuclear DNA and compared to untreated IgG 0 Gy. Data are reported as means+/−S.D. of 3 independent experiments. (***p<0.001, ****p<0.0001).

CW22Rv1 cells = assay: Seahorse-XF mito-stress test
Experimental: Cells were analyzed for mito-stress test by Seahorse-XF 168 hours following 4 Gy of radiation in the presence of IgG or TRC105. FIG. 26A) Basal respiration, non-mito respiration, proton leak, spare respiratory capacity, FIG. 26B) extracellular acidification rate (ECAR) and FIG. 26C) mitochondrial dependent ATP production were quantitated using Wave 2.3.0 analysis. Data are reported as mean+/−S.D. of a representative experiment (n=5) of 3 independent experiments. FIGS. 26A-26C, the first/left column depicts 0Gy+IgG, the second column depicts 0Gy+TRC105, the third column depicts 4Gy+IgG and the last/right column depicts 4Gy+TRC105. FIG. 26D) 22Rv1 cells treated with IgG, TRC105 or nicotinamide were irradiated (4 Gy). Total cellular ATP was measured 0, 24, 72, 120, and 168 hours post radiation. Within each group, the left column is IgG, middle column is TRC105 and the right column is nicotinamide. Data are reported as mean+/−S.D. of 3 independent experiments. (***p<0.001, ****p<0.0001).

In the case of “TRC105: partially humanized monoclonal antibody that blocks BMP signaling; human-specific CD105 (endoglin) neutralizing antibody from Tracon Pharmaceuticals”, the “epithelial proliferation, antibody alone” value ([1]; compared to IgG control, 1 μg/mL, 72 hours) was “did not change epithelial proliferation”, the “enzalutamide-induced epithelial proliferation, single antibody” value ([1]; enzalutamide plus M1043 or TRC105) was “did not alter enzalutamide-induced epithelial proliferation” and the “epithelial proliferation, enzalutamide with both M1043 and TRC105” value ([1]; triple combination) was “restored epithelial proliferation to that of control”. For the same substance, the mtDNA (mtDNA in 22Rv1 cells) was “dramatic down regulation of mtDNA”, the “mitochondrial dependent ATP production” value (CW22Rv1 cells; TRC105 alone) was “depletion of mitochondrial dependent ATP production” and the spare respiratory capacity (CW22Rv1 cells; TRC105 plus 4 Gy vs radiation alone) was “further decrease in spare respiratory capacity”. The basal oxidative phosphorylation (CW22Rv1 cells; TRC105 plus 4 Gy vs radiation alone, 168 hours) was “decrease in basal oxidative phosphorylation”, the “glycolysis (extracellular acidification)” value (CW22Rv1 cells; addition of TRC105 in the context of radiation) was “blocked glycolysis” and the “mitochondrial dependent ATP production” value (CW22Rv1 cells; combination of radiation and TRC105 vs either agent alone) was “further depletion”.
